Structures are written as SMILES.

One may read the clearance as a measure of how efficiently the substance is removed, as volume per time. Usually inhibition in vivo stands for the relative decrease from the control value, in per cent.

The nature of series [1]: Clearance in CD1 mouse. The format is ADME, organism-based. The note with it: in vivo.
The target in series [2] is Calcium/calmodulin-dependent protein kinase type II subunit beta (Homo sapiens) (UniProt Q13554). Briefly: Inhibition of CAMK2B assessed as enzyme activity at 1 uM relative to untreated control. More on the design: scale not given: the % may be the effect or the level left.
Series [3] has as its target Calcium/calmodulin-dependent protein kinase kinase 2 (Homo sapiens) (UniProt Q96RR4). Briefly: Inhibition of CAMKK2 assessed as enzyme activity at 1 uM relative to untreated control. The arrangement: scale not given: the % may be the effect or the level left.
For series [4], the target named is Cyclin-dependent kinase 2 (Homo sapiens) (UniProt P24941). The series is described as follows: Inhibition of CDK2 assessed as enzyme activity at 1 uM relative to untreated control. The arrangement: scale not given: the % may be the effect or the level left.
Series [5] has as its target Serine/threonine-protein kinase Chk1 (Homo sapiens) (UniProt O14757). Briefly: Inhibition of CHEK1 assessed as enzyme activity at 1 uM relative to untreated control. The arrangement: scale not given: the % may be the effect or the level left.
Series [6] concerns Proto-oncogene tyrosine-protein kinase receptor Ret (Homo sapiens), P07949 [V804L]. The series is described as follows: Inhibition of RET V804L mutant assessed as enzyme activity at 1 uM relative to untreated control. More on the design: scale not given: the % may be the effect or the level left.
Chain of Proto-oncogene tyrosine-protein kinase receptor Ret (Homo sapiens), P07949 [V804L] (P07949 whole entry V804L, the tested form may be a part): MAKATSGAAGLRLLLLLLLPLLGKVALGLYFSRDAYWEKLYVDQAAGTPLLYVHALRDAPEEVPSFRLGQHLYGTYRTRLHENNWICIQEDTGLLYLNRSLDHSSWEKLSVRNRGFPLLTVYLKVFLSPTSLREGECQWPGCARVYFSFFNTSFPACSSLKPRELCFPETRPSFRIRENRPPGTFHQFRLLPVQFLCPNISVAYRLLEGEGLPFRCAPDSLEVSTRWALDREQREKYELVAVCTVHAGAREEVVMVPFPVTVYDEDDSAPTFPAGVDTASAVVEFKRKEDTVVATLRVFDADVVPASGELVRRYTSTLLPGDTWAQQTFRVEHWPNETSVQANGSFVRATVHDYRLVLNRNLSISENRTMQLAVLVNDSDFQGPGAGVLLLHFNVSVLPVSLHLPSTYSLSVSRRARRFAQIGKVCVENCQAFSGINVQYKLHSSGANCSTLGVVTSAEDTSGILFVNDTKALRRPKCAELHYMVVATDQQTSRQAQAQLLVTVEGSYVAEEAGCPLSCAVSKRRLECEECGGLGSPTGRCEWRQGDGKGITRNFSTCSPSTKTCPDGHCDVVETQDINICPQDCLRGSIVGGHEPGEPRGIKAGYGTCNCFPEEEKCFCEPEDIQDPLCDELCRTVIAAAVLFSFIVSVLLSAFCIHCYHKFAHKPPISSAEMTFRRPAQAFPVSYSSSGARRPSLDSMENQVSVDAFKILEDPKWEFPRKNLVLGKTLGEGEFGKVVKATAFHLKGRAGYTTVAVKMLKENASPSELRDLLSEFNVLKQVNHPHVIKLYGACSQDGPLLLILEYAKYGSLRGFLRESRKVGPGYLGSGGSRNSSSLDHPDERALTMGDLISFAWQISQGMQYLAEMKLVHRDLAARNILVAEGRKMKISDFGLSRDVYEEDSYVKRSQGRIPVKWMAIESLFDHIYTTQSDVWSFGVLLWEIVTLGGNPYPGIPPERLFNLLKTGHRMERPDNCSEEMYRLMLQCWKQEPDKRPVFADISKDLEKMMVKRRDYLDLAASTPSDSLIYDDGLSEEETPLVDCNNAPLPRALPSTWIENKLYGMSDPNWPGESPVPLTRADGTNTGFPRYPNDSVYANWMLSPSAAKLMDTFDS
Series [7] has as its target Ribosomal protein S6 kinase alpha-2 (Homo sapiens) (UniProt Q15349). Briefly: Inhibition of RPS6KA2 kinase domain 1 assessed as enzyme activity at 1 uM relative to untreated control. More on the design: scale not given: the % may be the effect or the level left.
Series [8] shares this target. The series is described as follows: Inhibition of RPS6KA2 kinase domain 2 assessed as enzyme activity at 1 uM relative to untreated control. The arrangement: scale not given: the % may be the effect or the level left.
For series [9], the target named is Mitogen-activated protein kinase 15 (Homo sapiens) (UniProt Q8TD08). Briefly: Inhibition of ERK8 assessed as enzyme activity at 1 uM relative to untreated control. The arrangement: scale not given: the % may be the effect or the level left.
Chain of Mitogen-activated protein kinase 15 (Homo sapiens) (Q8TD08 whole entry): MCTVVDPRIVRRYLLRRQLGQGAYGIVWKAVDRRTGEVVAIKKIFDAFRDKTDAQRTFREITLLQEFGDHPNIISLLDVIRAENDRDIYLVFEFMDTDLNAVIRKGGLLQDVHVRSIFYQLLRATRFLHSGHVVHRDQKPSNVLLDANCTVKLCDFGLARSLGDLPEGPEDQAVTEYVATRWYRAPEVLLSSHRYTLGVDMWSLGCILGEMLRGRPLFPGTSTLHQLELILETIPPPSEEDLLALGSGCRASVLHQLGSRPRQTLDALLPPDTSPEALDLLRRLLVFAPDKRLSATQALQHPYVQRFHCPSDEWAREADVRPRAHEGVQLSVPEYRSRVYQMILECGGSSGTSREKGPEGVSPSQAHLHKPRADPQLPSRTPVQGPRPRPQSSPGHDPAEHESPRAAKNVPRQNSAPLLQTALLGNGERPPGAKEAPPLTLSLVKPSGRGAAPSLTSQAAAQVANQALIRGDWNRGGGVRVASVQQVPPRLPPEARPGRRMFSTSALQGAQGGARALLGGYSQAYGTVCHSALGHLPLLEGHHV
In series [10] the target is Tyrosine-protein kinase HCK (Homo sapiens) (UniProt P08631). The series is described as follows: Inhibition of HCK assessed as enzyme activity at 1 uM relative to untreated control. More on the design: scale not given: the % may be the effect or the level left.
Chain of Tyrosine-protein kinase HCK (Homo sapiens) (P08631 2-526 limits assumed): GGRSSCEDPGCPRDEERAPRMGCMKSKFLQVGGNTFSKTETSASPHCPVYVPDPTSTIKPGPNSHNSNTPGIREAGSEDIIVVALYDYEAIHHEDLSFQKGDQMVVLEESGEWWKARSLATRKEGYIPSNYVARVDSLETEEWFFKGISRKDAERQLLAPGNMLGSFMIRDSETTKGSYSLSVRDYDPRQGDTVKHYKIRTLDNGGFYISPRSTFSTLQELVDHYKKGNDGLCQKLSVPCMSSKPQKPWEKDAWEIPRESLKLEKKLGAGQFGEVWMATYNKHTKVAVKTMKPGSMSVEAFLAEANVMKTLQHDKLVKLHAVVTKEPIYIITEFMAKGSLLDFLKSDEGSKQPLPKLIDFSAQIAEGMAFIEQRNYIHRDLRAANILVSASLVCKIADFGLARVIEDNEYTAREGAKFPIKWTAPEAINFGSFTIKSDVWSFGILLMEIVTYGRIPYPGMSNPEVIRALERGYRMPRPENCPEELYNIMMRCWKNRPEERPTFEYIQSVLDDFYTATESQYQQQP
The subject of a further series is Mus musculus. Briefly: Inhibition of ERK phosphorylation in human A375 SQ2 cells xenografted CD1 mouse at 5 mg/kg, po qd after 6 hrs. The class given is functional. The note with it: CD1, A375-SQ2, 6 h. On the technique in general: In xenograft studies the graft and the host belong to different species.
The subject of series [11] is Tyrosine-protein kinase ABL1 (Homo sapiens), P00519 [E255K]. The series is described as follows: Inhibition of ABL1 E255K mutant assessed as enzyme activity at 1 uM relative to untreated control. More on the design: scale not given: the % may be the effect or the level left.
Series [12] has as its target Dual specificity protein kinase TTK (Homo sapiens) (UniProt P33981). Briefly: Inhibition of TTK assessed as enzyme activity at 1 uM relative to untreated control. The arrangement: scale not given: the % may be the effect or the level left.

Chain of Ribosomal protein S6 kinase alpha-2 (Homo sapiens) (Q15349 whole entry, the tested form may be a part): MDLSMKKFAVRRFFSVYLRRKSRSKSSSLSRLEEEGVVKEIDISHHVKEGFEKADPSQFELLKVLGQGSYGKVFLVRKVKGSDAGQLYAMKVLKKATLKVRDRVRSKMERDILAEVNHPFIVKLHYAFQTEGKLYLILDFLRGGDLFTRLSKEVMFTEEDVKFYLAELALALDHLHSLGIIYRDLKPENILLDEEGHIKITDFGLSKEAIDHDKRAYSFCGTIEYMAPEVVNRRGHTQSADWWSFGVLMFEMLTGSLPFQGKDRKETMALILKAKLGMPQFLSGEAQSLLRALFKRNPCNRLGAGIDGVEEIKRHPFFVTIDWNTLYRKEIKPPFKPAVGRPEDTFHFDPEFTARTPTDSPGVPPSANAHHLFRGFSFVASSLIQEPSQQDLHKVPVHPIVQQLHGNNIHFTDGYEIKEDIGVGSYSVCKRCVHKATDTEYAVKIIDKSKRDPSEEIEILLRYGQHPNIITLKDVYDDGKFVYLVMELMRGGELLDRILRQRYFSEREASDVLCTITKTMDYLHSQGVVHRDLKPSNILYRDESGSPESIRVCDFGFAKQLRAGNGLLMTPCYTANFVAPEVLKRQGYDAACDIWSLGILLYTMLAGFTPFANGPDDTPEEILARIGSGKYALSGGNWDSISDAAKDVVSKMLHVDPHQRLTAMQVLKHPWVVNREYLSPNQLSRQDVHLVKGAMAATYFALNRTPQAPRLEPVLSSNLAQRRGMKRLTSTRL
Chain of Calcium/calmodulin-dependent protein kinase kinase 2 (Homo sapiens) (Q96RR4 2-588 limits assumed): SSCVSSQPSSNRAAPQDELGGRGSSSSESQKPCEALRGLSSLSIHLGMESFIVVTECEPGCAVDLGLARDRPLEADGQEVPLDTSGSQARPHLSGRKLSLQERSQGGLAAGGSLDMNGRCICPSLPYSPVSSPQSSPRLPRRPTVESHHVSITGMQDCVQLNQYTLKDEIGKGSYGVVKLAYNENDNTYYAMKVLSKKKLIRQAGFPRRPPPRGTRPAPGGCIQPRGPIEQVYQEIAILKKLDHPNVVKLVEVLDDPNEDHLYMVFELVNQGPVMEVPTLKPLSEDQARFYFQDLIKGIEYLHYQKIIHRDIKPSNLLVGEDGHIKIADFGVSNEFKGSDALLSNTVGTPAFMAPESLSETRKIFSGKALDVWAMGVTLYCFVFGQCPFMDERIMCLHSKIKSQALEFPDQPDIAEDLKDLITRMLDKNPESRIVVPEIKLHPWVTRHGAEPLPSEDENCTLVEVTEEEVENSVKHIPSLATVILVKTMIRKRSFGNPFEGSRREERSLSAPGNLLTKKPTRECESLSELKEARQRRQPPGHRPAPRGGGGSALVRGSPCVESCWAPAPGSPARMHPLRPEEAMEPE
Chain of Tyrosine-protein kinase ABL1 (Homo sapiens), P00519 [E255K] (P00519 whole entry E255K): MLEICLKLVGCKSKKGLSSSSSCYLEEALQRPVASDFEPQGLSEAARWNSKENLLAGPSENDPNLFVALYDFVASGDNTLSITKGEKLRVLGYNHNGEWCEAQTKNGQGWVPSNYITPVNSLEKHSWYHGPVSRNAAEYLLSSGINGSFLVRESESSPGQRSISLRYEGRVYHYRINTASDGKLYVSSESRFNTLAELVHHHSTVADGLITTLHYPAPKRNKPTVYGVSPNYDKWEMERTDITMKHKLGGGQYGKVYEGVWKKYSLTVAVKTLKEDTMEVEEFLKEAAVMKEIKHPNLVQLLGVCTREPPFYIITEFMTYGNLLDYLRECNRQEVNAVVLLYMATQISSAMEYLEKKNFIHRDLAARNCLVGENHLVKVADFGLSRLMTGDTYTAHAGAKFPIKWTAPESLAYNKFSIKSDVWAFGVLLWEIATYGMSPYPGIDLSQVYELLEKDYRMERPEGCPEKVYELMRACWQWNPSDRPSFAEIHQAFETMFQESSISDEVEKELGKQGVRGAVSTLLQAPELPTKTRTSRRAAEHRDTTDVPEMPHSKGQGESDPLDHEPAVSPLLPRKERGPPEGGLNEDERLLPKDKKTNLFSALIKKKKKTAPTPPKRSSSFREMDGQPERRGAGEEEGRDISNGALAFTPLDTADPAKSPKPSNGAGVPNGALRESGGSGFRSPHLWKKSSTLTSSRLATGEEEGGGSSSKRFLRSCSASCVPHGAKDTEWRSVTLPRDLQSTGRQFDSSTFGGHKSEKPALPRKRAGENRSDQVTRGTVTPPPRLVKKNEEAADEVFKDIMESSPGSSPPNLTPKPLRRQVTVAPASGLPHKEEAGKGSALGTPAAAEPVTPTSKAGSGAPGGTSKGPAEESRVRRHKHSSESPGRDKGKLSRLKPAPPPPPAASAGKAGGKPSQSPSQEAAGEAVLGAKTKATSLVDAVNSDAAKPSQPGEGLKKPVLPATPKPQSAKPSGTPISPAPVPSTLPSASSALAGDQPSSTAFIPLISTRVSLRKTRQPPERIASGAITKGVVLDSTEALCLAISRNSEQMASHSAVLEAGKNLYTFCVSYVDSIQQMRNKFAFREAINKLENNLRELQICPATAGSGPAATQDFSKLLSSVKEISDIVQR

With `Cc1ccc2c(Nc3ccc(Cl)cc3)nccc2c1Nc1ncccc1-c1ncnc2[nH]cnc12.Cl.Cl.Cl`, the clearance in series [1] is 3.17 mL/min. The Activity in series [2] turned out to be 100%; in series [3], 98%; in series [4], 100%; in series [5] it was 100%; in series [6] it was 100%; in series [7], 100%. For the same compound, the Activity was 81% in series [8]; 98% in [9]; 53% in [10]; 80% in [11]; 100% in series [12]. In the series on Mus musculus, this compound displayed an inhibition in vivo at 5 mg/kg of 77%.

(Values after ChEMBL document CHEMBL1155237, “Selective inhibitors of the mutant B-Raf pathway: discovery of a potent and orally bioavailable aminoisoquinoline” (J Med Chem, 2009).)
